Reference: patent US9125430B2, “Stable and bioavailable compositions of isomers of carotenoids for skin and hair” (Nestec S.A., priority 2006, dated 2015)

Assay: Stability of pure lycopene isomers in n-hexane during storage at room temperature
Format: physicochemical
Settings: for concentration 5-Z / concentration all E / concentration x-Z / concentration 9-Z / concentration 13-Z: n-hexane; for transformation pathway during storage: storage in n-hexane
Protocol: Pure 5-Z, 9-Z, 13-Z and all-E lycopene were isolated from isomerised tomato oleoresin (submitted to 1 hour heating), by collecting the fractions containing the corresponding peaks after HPLC separation (see below the experimental conditions). Peaks were collected during two consecutive HPLC runs and the corresponding fractions were pooled.
Amount of total lycopene was determined by reverse phase HPLC on a C18 precolumn (ODS Hypersil, 5 μm, 20×4 mm; Hewlett Packard, Geneva, Switzerland) and a C18 column (Nova pak, 3.9 μm i.d.×300 mm length, Millipore, Volketswil, Switzerland). […] The mobile phase flow rate was 1.5 mL/min. Lycopene isomer profiles were determined by normal phase HPLC according to the method described by Schierle et al. (1997). Food. Chem. 59: 459. Samples of isomerized oleoresins were dissolved in n-hexane containing 50 ppm BHT and spun at maximum speed in an Eppendorf Lab centrifuge. The resulting supernatants were immediately analyzed by HPLC. The HPLC system used was a 1100 series Hewlett-Packard model equipped with an ultraviolet-visible photodiode array detector. Data were simultaneously acquired at 470 nm, 464 nm, 346 nm and 294 nm. Samples (10 μl) were separated using a combination of three Nucleosil 300-5 columns (4 mm internal diameter×250 mm length, Macherey-Nagel). […] Flow rate was 0.8 mL/min. Lycopene Z-isomers were identified according to literature data.
Amounts of lycopene isomers were calculated based on surface areas of the HPLC peaks using the same extinction coefficient as the all-E lycopene. Therefore, the lycopene concentration in products containing Z-isomers is slightly underestimated since it is recognized that the extinction coefficients of Z-isomers are lower than that of the all-E isomer. Conditions for Stability Tests
Stability of lycopene isomers was investigated both in n-hexane and in a tomato oleoresin isomerized by 4 hour heating in ethyl acetate. For this purpose, pure lycopene isomers were stored for 33 days in n-hexane at room temperature and in the absence of light, and the isomerized tomato oleoresin was kept for 55 days at room temperature in the absence of light. Total lycopene concentration and lycopene isomer profiles were measured at various time intervals during the storage.

[1] = room temperature, absence of light, 0 days
[2] = room temperature, absence of light, 1 day
[3] = room temperature, absence of light, 2 days
[4] = room temperature, absence of light, 5 days
[5] = room temperature, absence of light, 12 days
[6] = room temperature, absence of light, 33 days

| SMILES | concentration 5-Z [1] | concentration all E [1] | concentration x-Z [1] | concentration 5-Z [2] | concentration all E [2] | concentration x-Z [2] | concentration 5-Z [3] | concentration all E [3] | concentration x-Z [3] | concentration 5-Z [4] | concentration all E [4] | concentration x-Z [4] | concentration 5-Z [5] | concentration 9-Z [5] | concentration 13-Z [5] | concentration all E [5] | concentration x-Z [5] | concentration 5-Z [6] | concentration 9-Z [6] | concentration 13-Z [6] | other results |
| --- | --- | --- | --- | --- | --- | --- | --- | --- | --- | --- | --- | --- | --- | --- | --- | --- | --- | --- | --- | --- | --- |
| CC(C)=CCC\C(C)=C/C=C/C(C)=C/C=C/C(C)=C/C=C/C=C(C)/C=C/C=C(C)/C=C/C=C(\C)CCC=C(C)C [5-Z lycopene] | 95.5 % of total isomers | 1.1 % of total isomers | 3.4 % of total isomers | 84.3 % of total isomers | 2.2 % of total isomers | 13.5 % of total isomers | 76.9 % of total isomers | 2.4 % of total isomers | 20.6 % of total isomers | 68.4 % of total isomers | 3.9 % of total isomers | 27.7 % of total isomers | 65.3 % of total isomers | 0.7 % of total isomers | 1.7 % of total isomers | 5.6 % of total isomers | 26.7 % of total isomers | 53.5 % of total isomers | 2.3 % of total isomers | 2.8 % of total isomers | concentration all E [6]: 10.7 % of total isomers; concentration x-Z [6]: 30.7 % of total isomers; transformation pathway during storage: principally transformed into other Z-isomers |
| CC(C)=CCC/C(C)=C/C=C/C(C)=C\C=C\C(C)=C\C=C\C=C(C)\C=C\C=C(C)\C=C\C=C(/C)CCC=C(C)C [9-Z lycopene] | 1.8 % of total isomers | 4.4 % of total isomers | 0 % of total isomers | 2.1 % of total isomers | 5.8 % of total isomers | 2.8 % of total isomers | 11.6 % of total isomers | 6.0 % of total isomers | 5.9 % of total isomers | 1.5 % of total isomers | 5.6 % of total isomers | 8.6 % of total isomers | 2.3 % of total isomers | 66.5 % of total isomers | 8.2 % of total isomers | 7.0 % of total isomers | 15.9 % of total isomers | 4.1 % of total isomers | 56.0 % of total isomers | 10.5 % of total isomers | concentration 9-Z [1]: 93.3 % of total isomers; concentration 13-Z [1]: 0.6 % of total isomers; concentration 9-Z [2]: 87.1 % of total isomers; concentration 13-Z [2]: 2.3 % of total isomers; concentration 9-Z [3]: 83.5 % of total isomers; concentration 13-Z [3]: 3.1 % of total isomers; concentration 9-Z [4]: 79.2 % of total isomers; concentration 13-Z [4]: 5.2 % of total isomers; concentration all E [6]: 9.8 % of total isomers; concentration x-Z [6]: 19.7 % of total isomers; transformation pathway during storage: principally transformed into other Z-isomers |
| CC(C)=CCC/C(C)=C/C=C/C(C)=C/C=C/C(C)=C\C=C\C=C(C)\C=C\C=C(C)\C=C\C=C(/C)CCC=C(C)C [13-Z lycopene] | 0 % of total isomers | 2.4 % of total isomers | 1.0 % of total isomers | 0 % of total isomers | 42.6 % of total isomers | 0 % of total isomers | 0 % of total isomers | 59.8 % of total isomers | 1.5 % of total isomers | 1.9 % of total isomers | 68.9 % of total isomers | 4.3 % of total isomers | 5.3 % of total isomers | 2.6 % of total isomers | 20.8 % of total isomers | 65.5 % of total isomers | 5.8 % of total isomers | 11.7 % of total isomers | 4.2 % of total isomers | 16.9 % of total isomers | fraction of the isomer transformed / converted into other isomers (after 33 day storage in n-hexane, room temperature, absence of light): more than 80%; stability compared with the 5-Z, 9-Z and all-E isomers (both stability tests (n-hexane and tomato oleoresin)): much less stable; concentration 9-Z [1]: 0 % of total isomers; concentration 13-Z [1]: 96.6 % of total isomers; concentration 9-Z [2]: 0.4 % of total isomers; concentration 13-Z [2]: 57.0 % of total isomers; concentration 9-Z [3]: 0 % of total isomers; concentration 13-Z [3]: 38.7 % of total isomers; concentration 9-Z [4]: 1.5 % of total isomers; concentration 13-Z [4]: 23.4 % of total isomers; concentration all E [6]: 57.0 % of total isomers; concentration x-Z [6]: 10.2 % of total isomers; transformation pathway during storage: mainly converted into the all-E isomer |
| CC(C)=CCC/C(C)=C/C=C/C(C)=C/C=C/C(C)=C/C=C/C=C(C)/C=C/C=C(C)/C=C/C=C(\C)CCC=C(C)C [all-E lycopene] | 0.5 % of total isomers | 97.6 % of total isomers | 0.1 % of total isomers | 1.2 % of total isomers | 86.0 % of total isomers | 1.5 % of total isomers | 2.6 % of total isomers | 78.4 % of total isomers | 3.0 % of total isomers | 3.8 % of total isomers | 69.3 % of total isomers | 5.1 % of total isomers | 6.4 % of total isomers | 2.0 % of total isomers | 18.2 % of total isomers | 67.8 % of total isomers | 5.6 % of total isomers | 13.4 % of total isomers | 3.8 % of total isomers | 15.7 % of total isomers | concentration 9-Z [1]: 0.5 % of total isomers; concentration 13-Z [1]: 1.4 % of total isomers; concentration 9-Z [2]: 1.2 % of total isomers; concentration 13-Z [2]: 10.1 % of total isomers; concentration 9-Z [3]: 1.1 % of total isomers; concentration 13-Z [3]: 15.0 % of total isomers; concentration 9-Z [4]: 2.2 % of total isomers; concentration 13-Z [4]: 19.6 % of total isomers; concentration all E [6]: 58.7 % of total isomers; concentration x-Z [6]: 8.4 % of total isomers |
